Measured values reported in ChEMBL document CHEMBL5108002, “Design, synthesis, and biological evaluation of novel 7-substituted 10,11-methylenedioxy-camptothecin derivatives against drug-resistant small-cell lung cancer in vitro and in vivo” (Eur J Med Chem, 2022).
Activity calls are given as the source filed them. The rule behind the calls is not given here.

How the values were obtained:
[1] = system: NCI-H446; assay: Induction of apoptosis in human NCI-H446 cells assessed as early apoptotic cells at 0.1 nM incubated for 24 hrs by AnnexinV-FITC/PI staining based flow cytometry analysis (reference value: 3.1 %); format: functional
[2] = system: NCI-H446; assay: Antiproliferative activity against Irinotecan-resistant human NCI-H446 cells assessed as inhibition of cell growth incubated for 72 hrs by SRB assay; format: functional, cell-based; details: NCI-H446, 72 h
[3] = system: NCI-H446; assay: Induction of apoptosis in human NCI-H446 cells assessed as increase in cleaved-caspase 9 protein expression at 0.1 to 100 nM measured after 24 to 48 hrs by Western blot analysis; format: functional, cell-based; details: dose 0.1-100 nM, time 24-48 hrs
[4] = system: H69AR; assay: Induction of apoptosis in human NCI-H69AR cells assessed as dead cells at 1 nM incubated for 24 hrs by AnnexinV-FITC/PI staining based flow cytometry analysis (reference value: 1.92 %); format: functional
[5] = system: H69AR; assay: Induction of apoptosis in human NCI-H69AR cells assessed as inhibition of Bcl-2 protein expression at 0.1 to 100 nM incubated for 24 hrs by Western blot analysis; format: functional, cell-based; details: dose 0.1-100 nM
[6] = system: NCI-H69; assay: Induction of apoptosis in human NCI-H69 cells assessed as increase in cleaved-caspase 3 protein expression at 0.1 to 100 nM measured after 24 hrs by Western blot analysis; format: functional, cell-based; details: dose 0.1-100 nM
[7] = system: NCI-H446; assay: Induction of apoptosis in human NCI-H446 cells assessed as inhibition of XIAP protein expression incubated for 24 hrs by Western blot analysis; format: functional, cell-based; details: dose 0.1-100 nM
[8] = system: H69AR; assay: Induction of apoptosis in human NCI-H69AR cells assessed as increase in cleaved-PARP protein expression at 0.1 to 100 nM measured after 24 hrs by Western blot analysis; format: functional, cell-based; details: dose 0.1-100 nM
[9] = system: H69AR; assay: Induction of apoptosis in human NCI-H69AR cells assessed as dead cells at 10 nM incubated for 24 hrs by AnnexinV-FITC/PI staining based flow cytometry analysis (reference value: 1.92 %); format: functional
[10] = system: SW-620; assay: Antiproliferative activity against human SW-620 cells assessed as inhibition of cell growth incubated for 72 hrs by SRB assay; format: functional, cell-based; details: SW-620, 72 h
[11] = system: NCI-H446; assay: Induction of apoptosis in human NCI-H446 cells assessed as early apoptotic cells at 1 nM incubated for 24 hrs by AnnexinV-FITC/PI staining based flow cytometry analysis (reference value: 3.1 %); format: functional
[12] = system: MCF7; assay: Antiproliferative activity against human MCF7 cells assessed as inhibition of cell growth incubated for 72 hrs by SRB assay; format: functional, cell-based; details: MCF7, 72 h
[13] = system: NCI-H446; assay: Induction of apoptosis in human NCI-H446 cells assessed as reduction in survivin mRNA level at 0.1 to 100 nM incubated for 24 hrs by RT-PCR analysis; format: functional, cell-based; details: dose 0.1-100 nM
[14] = system: NCI-H446; assay: Induction of apoptosis in human NCI-H446 cells assessed as inhibition of Bcl-1 protein expression at 0.1 to 100 nM incubated for 24 hrs by Western blot analysis; format: functional, cell-based; details: dose 0.1-100 nM
[15] = system: H69AR; assay: Induction of apoptosis in human NCI-H69AR cells assessed as early apoptotic cells at 100 nM incubated for 24 hrs by AnnexinV-FITC/PI staining based flow cytometry analysis (reference value: 0.35 %); format: functional
[16] = system: H69AR; assay: Antiproliferative activity against human NCI-H69AR cells assessed as inhibition of cell growth incubated for 72 hrs by SRB assay; format: functional, cell-based
[17] = system: NCI-H446; assay: Induction of apoptosis in human NCI-H446 cells assessed as increase in cleaved-caspase 3 protein expression at 0.1 to 100 nM measured after 24 to 48 hrs by Western blot analysis; format: functional, cell-based; details: dose 0.1-100 nM, time 24-48 hrs
[18] = system: NCI-H446; assay: Induction of apoptosis in human NCI-H446 cells assessed as downregulation of survivin protein expression at 0.1 to 100 nM measured for 48 hrs by Western blot analysis; format: functional, cell-based; details: dose 0.1-100 nM
[19] = system: NCI-H446; assay: Induction of apoptosis in human NCI-H446 cells assessed as dead cells at 1 nM incubated for 24 hrs by AnnexinV-FITC/PI staining based flow cytometry analysis (reference value: 0.22 %); format: functional
[20] = system: NCI-H446; assay: Antitumor activity against etoposide/cisplatin combination-resistant human NCI-H446 cells xenografted in BALB/c nude mouse assessed as average tumor mass at 3 mg/kg, IG administered once a week and measured 3 times a week; format: functional
[21] = system: NCI-H69; assay: Induction of apoptosis in human NCI-H69 cells assessed as inhibition of Bcl-2 protein expression at 0.1 to 100 nM incubated for 24 hrs by Western blot analysis; format: functional, cell-based; details: dose 0.1-100 nM
[22] = Toxicity in BALB/c nude mouse xenografted with human NCI-H446 cells assessed as reduction in body weight at high dose administered intragastrically once a week for 28 days and measured three times a week; details: in vivo, po, 672 h, route ig, time 28 day
[23] = system: NCI-H446; assay: Induction of apoptosis in human NCI-H446 cells assessed as reduction in XIAP mRNA level at 0.1 to 100 nM incubated for 24 hrs by RT-PCR analysis; format: functional, cell-based; details: dose 0.1-100 nM
[24] = system: NCI-H446; assay: Antitumor activity against human NCI-H446 cells xenografted in BALB/c nude mouse assessed as tumor growth inhibition at 0.75 mg/kg, IG administered once a week for 28 days by electronic caliper method relative to control; format: functional; details: NCI-H446, po, 672 h, time 28 day, read-out: TGI
[25] = system: Mus musculus; assay: Downregulation of Bcl-2 protein expression in tumor of BALB/c mouse xenografted with human NCI-H446 cells at 0.75 mg/kg, IG administered intragastrically once a week for 28 days by western blot analysis; format: functional, organism-based; details: time 28.0 day
[26] = system: NCI-H69; assay: Induction of apoptosis in human NCI-H69 cells assessed as increase in cleaved-PARP protein expression at 0.1 to 100 nM measured after 24 hrs by Western blot analysis; format: functional, cell-based; details: dose 0.1-100 nM
[27] = system: NCI-H69; assay: Induction of apoptosis in human NCI-H69 cells assessed as inhibition of Mcl-1 protein expression at 0.1 to 100 nM incubated for 24 hrs by Western blot analysis; format: functional, cell-based; details: dose 0.1-100 nM
[28] = system: NCI-H446; assay: Antitumor activity against Irinotecan-resistant human NCI-H446 cells xenografted in BALB/c nude mouse assessed as tumor weight at 3 mg/kg, IG administered once a week and measured 3 times a week for 35 days relative to control; format: functional; details: NCI-H446, po, 840 h, time 35 day, read-out: TGI
[29] = system: H69AR; assay: Induction of apoptosis in human NCI-H69AR cells assessed as late apoptotic cells at 100 nM incubated for 24 hrs by AnnexinV-FITC/PI staining based flow cytometry analysis (reference value: 2.99 %); format: functional
[30] = system: 2008; assay: Antiproliferative activity against human 2008 cells assessed as inhibition of cell growth incubated for 72 hrs by SRB assay; format: functional, cell-based; details: Homo sapiens, 2008, 72 h
[31] = system: Mus musculus; assay: Downregulation of survivin protein expression in tumor of BALB/c mouse xenografted with human NCI-H446 cells at 0.75 mg/kg, IG administered intragastrically once a week for 28 days by western blot analysis; format: functional, organism-based; details: time 28.0 day
[32] = system: NCI-H446; assay: Antitumor activity against human NCI-H446 cells xenografted in BALB/c nude mouse assessed as tumor growth inhibition at 1.5 mg/kg, IG administered once a week for 28 days by electronic caliper method relative to control; format: functional; details: NCI-H446, po, 672 h, time 28 day, read-out: TGI
[33] = system: H69AR; assay: Induction of apoptosis in human NCI-H69AR cells assessed as increase in cleaved-caspase 3 protein expression at 0.1 to 100 nM measured after 24 hrs by Western blot analysis; format: functional, cell-based; details: dose 0.1-100 nM

## CC[C@@]1(O)C(=O)OCc2c1cc1n(c2=O)Cc2c-1nc1cc3c(cc1c2-c1ccoc1)OCO3
[1]
  Activity: 7%
[2]
  IC50: 0.5 nM
[3]
  Activity: Active
[4]
  Activity: 2.61%
[5]
  inhibition: Active
[6]
  Activity: Active
[7]
  inhibition: Active
[8]
  Activity: Active
[9]
  Activity: 1.82%
[10]
  IC50: 0.11 nM
[11]
  Activity: 13.08%
[12]
  IC50: 9.49 nM
[13]
  Activity: Active
[14]
  inhibition: Active
[15]
  Activity: 1.73%
[16]
  IC50: 5.57 nM
[17]
  Activity: Active
[18]
  Activity: Active
[19]
  Activity: 3.79%
[20]
  Activity: 0.23 g
[21]
  inhibition: Active
[22]
  Activity: Toxic
[23]
  Activity: Active
[24]
  inhibition in vivo at 0.75 mg/kg: 40.4%
[25]
  Activity: Active
[26]
  Activity: Active
[27]
  inhibition: Active
[28]
  inhibition in vivo at 3 mg/kg: 93.4%
[29]
  Activity: 32.38%
[30]
  IC50: 10.2 nM
[31]
  Activity: Active
[32]
  inhibition in vivo at 1.5 mg/kg: 73.7%
[33]
  Activity: Active
